Laboratory results as given in article PMC4340626, “Neuronal Expression of the Human Neuropeptide S Receptor NPSR1 Identifies NPS-Induced Calcium Signaling Pathways” (PLoS ONE, 2015).
“Also recorded” adds a separate entry of the source. Where a SMILES comes first, the peptide text is derived from it.

Legend:
SERCA-ATPases = experiment: SERCA inhibition with CPA: calcium leakage and effect on NPS-evoked calcium signals; type: cell-based, mouse
[1] = tested on: NPSR1-mediated calcium signals (action potentials suppressed); type: cell-based, mouse
NPSR1 [2] = experiment: NPSR1 antagonist SHA68 against NPS-evoked calcium signals in NPSR1-expressing hippocampus neurons; type: cell-based, human
human NPSR1 variants = settings: HEK293 or CHO cells; ref [1],[10],[23]–[25]; cited from earlier work
From the text: (§1) Despite these numerous biological functions, little is known about the molecular mechanisms underlying NPS receptor activity. […] However, the intracellular pathways downstream to NPSR1 activation have not been identified in deta ...

[3] = tested on: Colo205 cells expressing NPSR1; settings: cited from earlier work
From the text: as §1

IP3R = experiment: IP3 receptor antagonist 2-APB against NPS-evoked calcium signals; type: cell-based, mouse
[4] = biological target: T1, human neuropeptide S receptor (NPSR1) (Homo sapiens, UniProt Q6W5P4); experiment: Single-cell calcium imaging (Fluo4) of NPS-evoked calcium signals in hippocampus neurons expressing NPSR1-mCherry; type: cell-based
T1 construct: expressed in transfected cells; host or cells: primary hippocampal neurons of P0-P2 C57BL/6 mice, transduced with AAV6 AAV-NPSR1-TS-mCherry-ER (hSyn promoter)
T1 sequence (Q6W5P4 1-371): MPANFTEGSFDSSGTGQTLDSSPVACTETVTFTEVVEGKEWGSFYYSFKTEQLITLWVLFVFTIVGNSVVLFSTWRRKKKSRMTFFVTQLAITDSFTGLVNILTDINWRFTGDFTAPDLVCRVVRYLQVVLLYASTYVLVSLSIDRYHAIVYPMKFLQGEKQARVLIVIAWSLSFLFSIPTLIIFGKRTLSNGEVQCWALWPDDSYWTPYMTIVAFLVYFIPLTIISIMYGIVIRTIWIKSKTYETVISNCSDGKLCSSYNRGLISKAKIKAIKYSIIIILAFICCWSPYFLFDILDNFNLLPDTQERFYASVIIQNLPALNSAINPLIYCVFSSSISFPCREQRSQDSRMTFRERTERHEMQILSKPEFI

SOCE [5] = experiment: SOCE blockers on slow component of NPSR1-evoked calcium signals; type: cell-based, mouse; settings: NPS 500 nM
[6] = tested on: ryanodine receptors (RyR); experiment: Ryanodine receptor contribution to NPS-evoked calcium signals; type: cell-based, mouse; settings: NPS 500 nM, mean ± SD
[7] = tested on: voltage activated calcium channels (Cav); experiment: Cav blocker cocktail on NPS-evoked calcium signals; type: cell-based, mouse; settings: NPS 500 nM, first application, 148 neurons; mean ± SD
[8] = tested on: untransfected hippocampus neurons; experiment: Calcium imaging of NPS in untransfected hippocampus neurons (control); type: cell-based, mouse; settings: NPS 500 nM, 936 untransfected neurons
[9] = tested on: NPSR1-expressing hippocampus neurons, influx of extracellular calcium; experiment: NPS-evoked calcium signals in calcium-free solution / slow component (calcium influx); type: cell-based, mouse; settings: NPS 500 nM, mean ± SD
[10] = tested on: store-operated calcium entry (SOCE); experiment: Store-operated calcium entry on re-addition of Ca2+ after NPS in calcium-free solution; type: cell-based, mouse; settings: NPS 500 nM, n = 47 cells, mean ± SD
STIM-mediated SOCE = settings: HeLa cells overexpressing STIM1; ref [50]; cited from earlier work
From the text: Store-operated calcium channels (SOCs) responsible for SOCE are known to be composed by the calcium release-activated calcium modulator 1 (ORAI) and members of the transient receptor potential type c (TRPC) channel families. Channel-activation is induced by interaction with the ER calcium sensor stromal interaction molecule (STIM).

SOCE [11] = tested on: SOCE; set-up: method as in PMID 12149283, PMID 2173565, PMID 18285445, PMID 21541286; settings: non-excitable cells and neurons; ref [36]–[38], [39]; cited from earlier work
[12] = tested on: transient receptor potential channel family; settings: cited from earlier work
From the text: In previous in vitro studies, NPSR1 has been expressed in HEK293 or CHO cells. These studies focused on comparing NPS and NPSR1 variants with respect to their Gαq and Gαs activity, i.e. their efficiency to induce intracellular calcium responses and cAMP production upon receptor stimulation, analyzing population responses from plate readers instead of confocal single-cell calcium imaging.

NPSR1 [13] = settings: cited from earlier work
[14] = repeated NPS 500 nM, 675 s interval, 111 neurons, mean ± SD, ANOVA p = 0.0133

CC(O)=C1C(=O)C2C3c4cccc5[nH]cc(c45)CC3C(C)(C)N2C1=O (centres unmarked) [CPA, cyclopiaconic acid]
normalized mean amplitude evoked by NPS after CPA (SERCA-ATPases; CPA 30 μM (500–650 s), NPS 500 nM, n = 397, mean ± SD, vs baseline p = 0.9992): 0.27 ± 0.4
transient increase in cytosolic calcium evoked by CPA (fluorescence amplitude) (SERCA-ATPases; CPA 30 μM, 397 neurons, mean ± SD): 1.6 ± 1.17
effect of CPA on NPSR1-mediated calcium signals (SERCA-ATPases; CPA 30 μM, NPS 500 nM, n = 397, ANOVA p < 0.0001): abolished NPSR1-mediated calcium signals

NC1=N[C@H](O)[C@H]2[C@H]3O[C@]4(O)O[C@@H]([C@@H](O)[C@@]2(N1)[C@@H]4O)[C@]3(O)CO [TTX, tetrodotoxin]
effect of TTX on NPSR1-mediated calcium signals [1]: not affected

CSCC[C@H](NC(=O)CNC(=O)[C@@H](NC(=O)CNC(=O)[C@@H](NC(=O)CNC(=O)[C@H](CC(N)=O)NC(=O)[C@H](CCCNC(=N)N)NC(=O)[C@H](Cc1ccccc1)NC(=O)[C@@H](N)CO)C(C)C)[C@@H](C)O)C(=O)N[C@@H](CCCCN)C(=O)N[C@@H](CCCCN)C(=O)N[C@H](C(=O)N[C@@H](CO)C(=O)N[C@@H](Cc1ccccc1)C(=O)N[C@@H](CCC(N)=O)C(=O)N[C@@H](CCCNC(=N)N)C(=O)N[C@@H](C)C(=O)N[C@@H](CCCCN)C(=O)N[C@@H](CO)C(=O)O)[C@@H](C)O [NPS, neuropeptide S] (H-SFRNGVGTGMKKTSFQRAKS-OH; N-terminus and C-terminus assumed)
mean fluorescence amplitude evoked by NPS, first application before U73122 (PLC): 3.44 ± 1.27
normalized mean fluorescence amplitude, NPS before SHA68 (NPSR1 [2]; NPS 250 nM, 204 neurons, mean ± SD): 2.9 ± 1.8
calcium mobilization and cAMP accumulation (human NPSR1 variants): elicit calcium mobilization and cAMP accumulation
cell proliferation and MAP kinase phosphorylation [3]: dose-dependent stimulation of cell proliferation and MAP kinase phosphorylation
normalized mean fluorescence amplitude evoked by NPS, first application before 2-APB (IP3R; NPS 500 nM, 166 neurons, mean ± SD): 3.86 ± 2.34
increase in normalized mean fluorescence (f/f0) over baseline [4]: 3.5 ± 2.9
rise time of NPSR1-dependent calcium signal (5–95% of max) ([4]; NPS 500 nM, initial rapid component, mean ± SD): 9.47 ± 5.77 s
decay time of NPSR1-dependent calcium signal (95–5% of max) ([4]; NPS 500 nM, slower recovery phase, mean ± SD): 132.71 ± 94.11 s
normalized mean fluorescence amplitude, 1st application [4, 14]: 3.6 ± 3.1
normalized mean fluorescence amplitude, 2nd application [4, 14]: 3.2 ± 3.3
normalized mean fluorescence amplitude, 3rd application [4, 14]: 2.4 ± 2.3
integral of response amplitude of slow component, control conditions (no SOCE blocker) (SOCE [5]; 229 cells, mean ± SD): 36.6 ± 8.3 x 10^4 (arbitrary units)
normalized mean fluorescence amplitude evoked by NPS prior to ryanodine ([6]; 136 neurons): 2.7 ± 1.48
normalized mean fluorescence amplitude, control recordings without ryanodine, first NPS application ([6]; 155 control neurons): 2.35 ± 1.9
normalized mean fluorescence amplitude, control recordings without ryanodine, second NPS application ([6]; 155 control neurons): 1.74 ± 1.4
amplitude of second NPS application normalized to the first, control cells ([6]; no ryanodine): 0.77 ± 0.35
integral of response amplitude during recovery phase, control conditions [7]: 36.2 ± 7.5 x 10^4 (arbitrary units)
mean fluorescence amplitude evoked by NPS before CPA (SERCA-ATPases; NPS 500 nM, 397 neurons, mean ± SD): 4.4 ± 2.69
calcium response to NPS in untransfected neurons [8]: no increase in normalized mean fluorescence intensity could be detected; also recorded: calcium responses could not be detected
integral of response amplitude over time, slow component, control conditions ([9]; 3 mM CaCl2, 229 cells): 36.6 ± 8.3 x 10^4 (arbitrary units)
integral of response amplitude over time, slow component, Ca2+-free solution ([9]; Ca2+-free, 5 mM EGTA, 65 neurons, t-test p < 0.0001): 23.4 ± 3.9 x 10^4 (arbitrary units)
amplitude of initial fast component of NPS-evoked calcium signal, calcium-free conditions ([9]; nominally calcium-free, 5 mM EGTA, 65 neurons, t-test vs control p = 0.1054): 2.9 ± 1.9
integral of response amplitude after re-addition of Ca2+, NPS applied once again under Ca2+-free conditions ([10]; ANOVA p < 0.0001): 5.9 ± 4.9 x 10^4 (arbitrary units)
integral of response amplitude after re-addition of Ca2+, first NPS application under calcium-free conditions ([10]; control without NPS 2.1 ± 3.2 x 10^4): 14.8 ± 7.2 x 10^4 (arbitrary units)

COc1ccc(CCCOC(Cn2ccnc2)c2ccc(OC)cc2)cc1 (centres unmarked) [SKF96365]
inhibition of STIM-mediated SOCE (STIM-mediated SOCE): inhibit STIM-mediated SOCE
effect on duration and amplitude of slow component of NPSR1-evoked calcium signals (SOCE [5]; ML-9 50 μM, SKF96365 15 μM): consistently reduced the duration and amplitude of the slow component
integral of response amplitude of slow component in presence of SKF96365 (SOCE [5]; SKF96365 15 μM (300 s pre-incubation), 127 cells, mean ± SD): 30.42 ± 3.8 x 10^4 (arbitrary units)
inhibition of SOCE (SOCE [11]): inhibit SOCE

ryanodine
normalized mean fluorescence amplitude evoked by NPS in presence of ryanodine ([6]; ryanodine 50 μM (300 s pre-incubation), 136 neurons, ANOVA p < 0.0001): 0.51 ± 0.37
amplitude of second NPS application normalized to the first, RyRs blocked ([6]; ryanodine 50 μM, t-test vs control p < 0.0001): 0.24 ± 0.25

2-aminoethoxydiphenyl borate [2-APB]
effect of 2-APB on responses to NPS (IP3R): prevented responses to NPS
normalized mean fluorescence amplitude evoked by NPS after 2-APB washout (IP3R): 2.2 ± 2.13
normalized mean fluorescence amplitude evoked by NPS in presence of 2-APB (IP3R): 0.39 ± 0.61
modulation of transient receptor potential channel family members [12]: modulates several members of the transient receptor potential channel family

COc1ccc2c(c1)CC[C@@H]1[C@@H]2CC[C@]2(C)[C@@H](NCCCCCCN3C(=O)C=CC3=O)CC[C@@H]12 [U73122]
effect of U73122 on NPS-mediated calcium release (PLC): abolished NPS-mediated calcium release
mean fluorescence amplitude when U73122 and NPS were co-applied (PLC): 0.14 ± 0.14

O=C(NCc1ccc(F)cc1)N1CCN2C(=O)OC(c3ccccc3)(c3ccccc3)C2C1 (centres unmarked) [SHA68, 3-oxo-1,1-diphenyl-tetrahydro-oxazolo[3,4-a]pyrazine-7-carboxylic acid 4-fluoro-benzylamide]
effect of SHA68 on NPS-evoked Ca2+ signals (NPSR1 [2]): NPS application failed to induce Ca^2+ signals in the same neurons; also recorded: reduced the effect of NPS to a level non-significantly different from baseline
normalized mean fluorescence amplitude evoked by NPS after washout of SHA68 (NPSR1 [2]): 1.2 ± 1.6
normalized mean fluorescence amplitude evoked by NPS in presence of SHA68 (NPSR1 [2]): 0.5 ± 0.7
effect on NPS-mediated calcium mobilization (NPSR1 [13]): blocks NPS-mediated calcium mobilization
